Test results published in US4103008A, “7[2(2,3 Dioxopiperazin-1-yl-carbonylamino)substituted 2 phenylacetamido]-3-2'-thiadiazolyl cephalosporanic acid derivatives” (priority 1976, dated 1978).
In brackets after ≈: the same amount, converted by molar mass. Where two headings read alike, the source gives them in different places.

Tests used:
[1] = tested on: Pseudomonas aeruginosa E2; assay: MIC against Pseudomonas aeruginosa E2; format: cell-based
[2] = tested on: Escherichia coli C 73-1; assay: In vitro antibacterial activity (MIC); format: cell-based; conditions: C731
[3] = tested on: Shigella dysenteriae shigae; assay: microbe, parasite or virus in culture; format: cell-based
[4] = tested on: Serratia strain No. 1; assay: In vitro antibacterial activity (MIC); format: cell-based; conditions: Serratia strain No. 1; in vitro; sodium salts; read-out: MIC
[5] = tested on: Staphylococcus aureus FDA 209NIH, P-J C-1; assay: In vitro antibacterial activity (MIC); format: cell-based; conditions: Staphylococcus aureus FDA 209NIH, P-J C-1; in vitro; sodium salts; read-out: MIC
[6] = tested on: Vibrio parahaemolyticus K - 5; assay: In vitro antibacterial activity (MIC); format: cell-based; conditions: K5; Vibrio parahaemolyticus K - 5; in vitro; sodium salts; read-out: MIC
[7] = tested on: Serratia strain No. 2; assay: In vitro antibacterial activity (MIC); format: cell-based; conditions: Serratia strain No. 2; in vitro; sodium salts; read-out: MIC
[8] = tested on: Salmonella enteritidis No. 11; assay: In vitro antibacterial activity (MIC); format: cell-based; conditions: Salmonella enterica; Salmonella enteritidis No. 11; in vitro; sodium salts; read-out: MIC
[9] = tested on: Enterobacter strain C73-17; assay: In vitro antibacterial activity (MIC); format: cell-based; conditions: C7317
[10] = tested on: Bacillus substilis ATCC 6633; assay: In vitro antibacterial activity (MIC); format: cell-based; conditions: ATCC6633; Bacillus substilis ATCC 6633; in vitro; sodium salts; read-out: MIC
[11] = tested on: Pseudomonas aeruginosa C73-2; assay: In vitro antibacterial activity (MIC); format: cell-based; conditions: C732; Pseudomonas aeruginosa C73-2; in vitro; sodium salts; read-out: MIC
[12] = tested on: Klebsilla pneumoniae; assay: In vitro antibacterial activity (MIC); format: cell-based
[13] = tested on: Pseudomonas strain C73-63; assay: In vitro antibacterial activity (MIC); format: cell-based; conditions: C7363; Pseudomonas strain C73-63; in vitro; sodium salts; read-out: MIC
[14] = Serum concentration and accumulative urinary excretion in rabbit; conditions: in vivo, im; for dose excreted at 6 h: 20 mg/kg; for concentration at 0.5 h: 20 mg/kg intramuscular, after 30 mins., sodium salts, Sarcina lutea assay
Procedure: (§1) Given below are the test results of in vitro antibacterial activity studies, serum concentrations and accumulative urinary excretions in rabbits and the protecting effects in mice, of some representative compounds of the invention.
(§2) The compounds used in the tests are shown in the following Table 1, but all of these compounds are in the form of the sodium salt.
Each of the test compounds (20 mg/kg) was intramuscularly administered to one group of 3 rabbits, and the amounts of antibiotics were measured by a conventional method, using Sarcina lutea.

[15] = tested on: Escherichia coli C 73-4; assay: In vitro antibacterial activity (MIC); format: cell-based; conditions: C734; Escherichia coli C 73-4; in vitro; sodium salts; read-out: MIC
[16] = tested on: Vibrio parahaemolyticus K - 3; assay: In vitro antibacterial activity (MIC); format: cell-based; conditions: K3; Vibrio parahaemolyticus K - 3; in vitro; sodium salts; read-out: MIC
[17] = tested on: Proteus morganii C73-23; assay: In vitro antibacterial activity (MIC); format: cell-based; conditions: Morganella morganii, C7323; Proteus morganii C73-23; in vitro; sodium salts; read-out: MIC
[18] = tested on: Pseudomonas aerugenosa E 2 strain; assay: ED50 in Pseudomonas infection in mice; format: in vivo; conditions: ICR-JCL mouse, male, 20g; P. aerugenosa E 2 3.6 × 10^4 intraperitoneal; compound intramuscular after 2 hrs.; ED50 after 7 days; sodium salts
Excerpt: as §1, §2
Pseudomonas aerugenosa E 2 strain (3.6 × 10^4) was intraperitonealy injected to each group of 10 of ICR-JCL mouse (male, 20g). After 2 hrs., each of the test compounds was intramuscularly administered to the infected mice and the ED50 values were measured after 7 days.

[19] = tested on: Salmonella strain C 73-30; assay: In vitro antibacterial activity (MIC); format: cell-based; conditions: C7330; Salmonella strain C 73-30; in vitro; sodium salts; read-out: MIC
Excerpt: as §1, §2

[20] = tested on: Salmonella strain C73-1; assay: In vitro antibacterial activity (MIC); format: cell-based; conditions: C731; Salmonella strain C73-1; in vitro; sodium salts; read-out: MIC
Excerpt: as §1, §2

[21] = tested on: Pseudomonas strain C73-83; assay: In vitro antibacterial activity (MIC); format: cell-based; conditions: C7383; Pseudomonas strain C73-83; in vitro; sodium salts; read-out: MIC
Excerpt: as §1, §2

[22] = tested on: Proteus morganii kono; assay: In vitro antibacterial activity (MIC); format: cell-based; conditions: Morganella morganii; Proteus morganii kono; in vitro; sodium salts; read-out: MIC
[23] = tested on: Streptococcus faecalis ATCC 8043; assay: In vitro antibacterial activity (MIC); format: cell-based; conditions: Enterococcus faecalis, ATCC8043; Streptococcus faecalis ATCC 8043; in vitro; sodium salts; read-out: MIC
[24] = Escherichia coli C 73-1, in vitro, sodium salts, read-out: MIC
[25] = Enterobacter strain C73-17, in vitro, sodium salts, read-out: MIC
[26] = Klebsilla pneumoniae, in vitro, sodium salts, read-out: MIC

| SMILES | MIC [1] [µg/mL] | MIC [3] [µg/mL] | MIC [4] [µg/mL] | MIC [5] [µg/mL] | MIC [6] [µg/mL] | MIC [7] [µg/mL] | MIC [8] [µg/mL] | MIC [10] [µg/mL] | MIC [11] [µg/mL] | MIC [13] [µg/mL] | dose excreted at 6 h [14] [%] | concentration at 0.5 h [14] [ng/mL] | MIC [15] [µg/mL] | MIC [16] [µg/mL] | MIC [17] [µg/mL] | ED50 in Pseudomonas infection in mice [18] [mg/mouse] | MIC [19] [µg/mL] | MIC [20] [µg/mL] | MIC [21] [µg/mL] | MIC [22] [µg/mL] | other results |
| --- | --- | --- | --- | --- | --- | --- | --- | --- | --- | --- | --- | --- | --- | --- | --- | --- | --- | --- | --- | --- | --- |
| CCOC(=O)Oc1ccc([C@@H](NC(=O)N2CCN(CC)C(=O)C2=O)C(=O)NC2C(=O)N3C(C(=O)O)=C(CSc4nnc(C)s4)CS[C@H]23)cc1Cl (single isomer, unassigned) [Example 12, 7-[D(-)-α-(4-ethyl-2,3-dioxopiperazin-1-yl-carbonylamino)-m-chloro-p-ethoxycarbonyloxyphenylacetamido]-3-(5-methyl-1,3,4-thiadiazol-2-yl-thiomethyl)-3-cephem-4-carboxylic acid] | 12.5 (≈ 16.3 µM) | – | – | – | – | – | – | – | – | – | – | – | – | – | – | – | – | – | – | – | – |
| CCN1CCN(C(=O)N[C@@H](C(=O)NC2C(=O)N3C(C(=O)O)=C(CSc4nncs4)CS[C@H]23)c2ccc(OC(=O)CC(C)=O)c(Cl)c2)C(=O)C1=O (single isomer, unassigned) [Example 10, 7-[D(-)-α-(4-ethyl-2,3-dioxopiperazin-1-yl-carbonylamino)-m-chloro-p-acetoacetoxyphenylacetamido]-3-(1,3,4-thiadiazol-2-yl-thiomethyl)-3-cephem-4-carboxylic acid] | 3.13 (≈ 4.08 µM) | – | – | – | – | – | – | – | – | – | – | – | – | – | – | – | – | – | – | – | – |
| CCN1CCN(C(=O)N[C@@H](C(=O)NC2C(=O)N3C(C(=O)O)=C(CSc4nncs4)CS[C@H]23)c2ccc(OC(C)=O)c(Cl)c2)C(=O)C1=O (single isomer, unassigned) [IV, 7-[D(-)-α-(4-ethyl-2,3-dioxopiperazin-1-yl-carbonylamino)-m-chloro-p-acetoxyphenylacetamido]-3-(1,3,4-thiadiazol-2-yl-thiomethyl)-3-cephem-4-carboxylic acid] | – | 0.39 (≈ 0.539 µM) | 3.13 | 6.25 | 12.5 | 3.13 | 3.13 | 6.25 | 3.13 | 3.13 | 27 | 34900 | 6.25 | 12.5 | 12.5 | 1.8 | 1.56 | 1.56 | 25 | 3.13 | MIC [2, 24]: 6.25 µg/mL; MIC [9, 25]: 25 µg/mL; MIC [12, 26]: 0.78 µg/mL; MIC [23]: 1.56 µg/mL |
| CCOC(=O)Oc1ccc([C@@H](NC(=O)N2CCN(CC)C(=O)C2=O)C(=O)NC2C(=O)N3C(C(=O)O)=C(CSc4nncs4)CS[C@H]23)cc1Cl (single isomer, unassigned) [VI, 7-[D(-)-α-(4-ethyl-2,3-dioxopiperazin-1-yl-carbonylamino)-m-chloro-p-ethoxycarbonyloxyphenylacetamido]-3-(1,3,4-thiadiazol-2-yl-thiomethyl)-3-cephem-4-carboxylic acid] | – | 1.56 (≈ 2.07 µM) | 6.25 | 0.39 | 12.5 | 6.25 | 0.2 | 0.39 | 12.5 | 3.13 | 17.4 | 19400 | 3.13 | 12.5 | 12.5 | 0.8 | 3.13 | 3.13 | 12.5 | 3.13 | MIC ([2]; Escherichia coli): 1.56 µg/mL (≈ 2.07 µM); MIC ([9]; Enterobacter): 1.56 µg/mL (≈ 2.07 µM); MIC [12]: 1.56 µg/mL (≈ 2.07 µM); MIC [23]: 6.25 µg/mL |
| CCN1CCN(C(=O)N[C@@H](C(=O)NC2C(=O)N3C(C(=O)O)=C(CSc4nncs4)CS[C@H]23)c2ccc(OC(=O)CC(C)=O)cc2)C(=O)C1=O (single isomer, unassigned) [Example 9, 7-[D(-)-α-(4-ethyl-2,3-dioxopiperazin-1-yl-carbonylamino)-p-acetoacetoxyphenylacetamido]-3-(1,3,4-thiadiazol-2-yl-thiomethyl)-3-cephem-4-carboxylic acid] | 6.25 (≈ 8.54 µM) | – | – | – | – | – | – | – | – | – | – | – | – | – | – | – | – | – | – | – | – |
| CCN1CCN(C(=O)N[C@@H](C(=O)NC2C(=O)N3C(C(=O)O)=C(CSc4nncs4)CS[C@H]23)c2ccc(OC(=O)OCC(C)C)cc2)C(=O)C1=O (single isomer, unassigned) [Example 17, 7-[D(-)-α-(4-ethyl-2,3-dioxopiperazin-1-yl-carbonylamino)-p-iso-butoxycarbonyloxyphenylacetamido]-3-(1,3,4-thiadiazol-2-yl-thiomethyl)-3-cephem-4-carboxylic acid] | 12.5 (≈ 16.7 µM) | – | – | – | – | – | – | – | – | – | – | – | – | – | – | – | – | – | – | – | – |
| CCOC(=O)Oc1ccc([C@@H](NC(=O)N2CCN(CC)C(=O)C2=O)C(=O)NC2C(=O)N3C(C(=O)O)=C(CSc4nnc(C)s4)CS[C@H]23)cc1 (single isomer, unassigned) [Example 11, 7-[D(-)-α-(4-ethyl-2,3-dioxopiperazin-1-yl-carbonylamino)-p-ethoxycarbonyloxyphenylacetamido]-3-(5-methyl-1,3,4-thiadiazol-2-yl-thiomethyl)-3-cephem-4-carboxylic acid] | 12.5 (≈ 17 µM) | – | – | – | – | – | – | – | – | – | – | – | – | – | – | – | – | – | – | – | – |
| CCN1CCN(C(=O)N[C@@H](C(=O)NC2C(=O)N3C(C(=O)O)=C(CSc4nncs4)CS[C@H]23)c2ccc(O)c(Cl)c2)C(=O)C1=O (single isomer, unassigned) [II, 7-[D(-)-α-(4-ethyl-2,3-dioxopiperazin-1-yl-carbonylamino)-m-chloro-p-hydroxyphenylacetamido]-3-(1,3,4-thiadiazol-2-yl-thiomethyl)-3-cephem-4-carboxylic acid] | – | < 0.05 | 3.13 | 0.2 | 12.5 | 6.25 | < 0.05 | 0.39 | 6.25 | 1.56 | 24 | 28800 | 1.56 | 12.5 | 6.25 | 2.2 | 1.56 | 0.78 | 12.5 | 3.13 | MIC [2, 24]: 1.56 µg/mL; MIC [9, 25]: 12.5 µg/mL; MIC [12, 26]: 0.78 µg/mL; MIC [23]: 1.56 µg/mL |
